According to a melting point compilation (Tetko et al.; mined from patent text by program, amines drawn as free bases though some values may be those of a salt):

Row | Structure (SMILES) | melting point [°C]
1 | Cc1nnsc1C(=O)Nc1ccc(-n2nc(C(F)(F)F)cc2OC(F)F)cc1 | 122 to 123
2 | O=C1C2=C(CCCC2)C(=S)N1c1ccc(Cl)cc1F | 101 to 102
3 | COc1cc(CNC(=O)c2ccc3c(c2)c(=O)n(Cc2ccccc2)c(=O)n3C)ccc1O | 183
4 | CCOc1ccc2ccc(NC(=O)c3ccc(OC)cc3)nc2n1 | 152
5 | CCCC(=O)Nc1n[nH]c2cc(-c3ccc(OC)cc3)ccc12 | 210
6 | CCc1ccc(CCc2ccc(-c3ccc(OC(F)(F)F)cc3)cc2)cc1 | 97
7 | Cc1cc(C)cc(Nn2cnc(C)c2-c2ccccc2)c1 | 154 to 156
8 | O=S(=O)(/C(=C\c1ccccc1)CO)c1ccccc1 | 67.5 to 69
9 | CN(C)c1ccc(-c2[nH]c(-c3ccc([N+](=O)[O-])cc3)nc2C(=O)Nc2nccs2)cc1 | 250 to 251
10 | C[C@@H]1N=C(c2ccccc2)c2cc([N+](=O)[O-])ccc2N(C)C1=O | 84 to 85
11 | Cc1ccnc2c1N=C(S(C)(=O)=O)c1cccnc1N2C1CC1 | 172 to 173
12 | CS(=O)(=O)c1ccccc1C(=O)C(C#N)C(=O)C1CC1 (configuration not stated) | 155
13 | Cc1ccc(C(OS(C)(=O)=O)(C(F)(F)F)C(F)(F)F)cc1C(OS(C)(=O)=O)(C(F)(F)F)C(F)(F)F | 107
14 | NC(=NO)c1ncn2c1nc(N1CCOCC1)c1ccccc12 | 212 to 213
15 | O=c1[nH]c(-c2ccccc2F)nc2c1CCCC2 | 170
16 | Cc1ccccc1-n1ccc2c(NCCCO)nc3c(C)cccc3c21 | 135 to 137
17 | CCOC(=O)C1(O)COc2cc3ccc(=O)[nH]c3cc2C1=O (configuration not stated) | > 300
18 | O=P1(c2ccc(F)cc2)c2ccccc2CN1c1ccccc1 (configuration not stated) | 119 to 120
19 | Cn1c(C(F)(F)F)cc(=O)n(-c2c(F)cc(Cl)c3cc(C=O)oc23)c1=O | 180 to 183
20 | C[C@@H]1CCCC[C@H]1C(=O)O (relative stereo) | 51 to 53
21 | C=C1CC(C)(c2ccc(Nc3c4ccccc4nc4occc34)cc2)OC1=O (configuration not stated) | 85 to 87
22 | CCN(C(=O)c1ccccc1)[C@@H](Cc1c[nH]c2ccccc12)C(=O)OC(=O)c1ccc(N)cc1 | 181 to 183
23 | O=Cc1cc(C=O)c(C#Cc2ccccc2)cc1C#Cc1ccccc1 | 170 to 172
24 | COc1cc(NCCCC(C)N2C(=O)c3ccccc3C2=O)c2nc(C)cc(C)c2c1OC (configuration not stated) | 141 to 144
25 | CN1CCN(CCCNC(=O)CN2CCCC2=O)CC1 | 93

Row | Structure (SMILES) | melting point [°C]
26 | Cc1c(CO)c2cnnc(OCc3ccccc3)c2n1Cc1ccccc1 | 130 to 132
27 | CCOC(=O)c1cn(CC)c2cc(-c3csc(C(C)NC(C)=O)n3)c(F)cc2c1=O (configuration not stated) | 236 to 238
28 | CCOC(=O)C(C)=Cc1cc(F)c(F)c(F)c1 | 54
29 | CNC1CCN(c2nc3c(cc2F)c(=O)c(C(=O)O)cn3C2CC2)C1 (configuration not stated) | 233 to 235
30 | CC(C)(CC(C)(Sc1cc(C(C)(C)C)c(O)c(C(C)(C)C)c1)Sc1cc(C(C)(C)C)c(O)c(C(C)(C)C)c1)Sc1cc(C(C)(C)C)c(O)c(C(C)(C)C)c1 | 93 to 115
31 | COC(=O)c1ccc2[nH]cc(CCCCN3CCN(c4ccc5c(c4)OCCO5)CC3)c2c1 | 177 to 179
32 | Cc1ccccc1S(=O)(=O)OC1C2C(C(=O)N1Cc1ccc3c(c1)OCO3)C(c1ccc(Br)cc1)N(C)C2(C)C (configuration not stated) | 172 to 173
33 | CCOc1cc2cc(COC(C)=O)c(COC(C)=O)c(-c3ccncc3)c2cc1OCC | 115 to 116
34 | O=C1C=C(c2ccc(C(=O)N3Cc4cccn4Cc4ccccc43)cc2)CCC1 | 205 to 207
35 | CCN(CC)CC(=O)OC1CC2(C)C(C(C)=O)CCC2C2CCC3CC(O)C(Cl)CC3(C)C12 (configuration not stated) | 182 to 187
36 | Cc1ccc(-n2c(-c3ccc(C=Cc4ccccc4)cc3)ccc2-c2ccc(C=Cc3ccccc3)cc2)cc1 | 297 to 298
37 | Oc1cccc2c1CC1OC1C2 (configuration not stated) | 143 to 146
38 | COc1ccc(O)c(Br)c1 | 37 to 38
39 | COC(=O)[C@@H]1CCCN1S(=O)(=O)c1ccc(C)c(C(=O)Cl)c1C | 92
40 | CCCc1cc2cc(NC(=O)OCC)ccc2o1 | 69 to 70
41 | S=c1[nH]c2c(n1Nc1cccc(Cl)c1)CCCC2 | 148
42 | O=C(O)CCCC=C(c1cccnc1)c1cccc(NC(=S)Nc2ccc(Cl)cc2Cl)c1 | 154 to 155
43 | CN(C)Cc1cc(C(=O)c2ccccc2)cc(C(C)(C)C)c1O | 129
44 | CC(C)SC(=O)N1CCN(c2ccc3ncc(Br)n3n2)CC1 | 186 to 187
45 | COc1ccc(C2=CCCc3cc(OC)ccc32)cc1 | 100 to 102
46 | COc1cccc(-c2nc(N)ncc2-c2ccc(=O)n(C)n2)c1 | 195
47 | CCCCCOc1ccc(C(=O)Nc2ccc3cc(CN4CCCC4)cnc3c2C)cc1 | 155
48 | CC1COCc2nc3cnc4cc(Br)ccc4c3n21 (configuration not stated) | 207 to 209
49 | Nc1nc(NCCNc2ccccc2)nc(-c2cc(Cl)ccc2Cl)n1 | 139 to 141
50 | CCN(Cc1csc(C(C)C)n1)C(=O)N[C@H](C(=O)N[C@@H](Cc1ccccc1)C[C@H](O)[C@H](Cc1ccccc1)NC(=O)OCc1cncs1)C(C)C | 58 to 60

Row | Structure (SMILES) | melting point [°C]
51 | Cc1cccc(-c2ccc(S(=O)(=O)N3c4ccccc4CC3C(=O)NCc3ccc(CC(=O)O)cc3)cc2)c1 (configuration not stated) | 118 to 120
52 | CCCC1=C(C(=O)OCC)C(C(C)C)n2ncc(C(=O)OCC)c2N1Cc1ccc(-c2ccccc2-c2nnn[nH]2)cc1 (configuration not stated) | 183 to 184
53 | Cc1cc(C(C)C)cc(C)c1CO | 75 to 77
54 | CC(C)(C)c1cc(-c2n[nH]c(=O)s2)cc(C(C)(C)C)c1O | 229
55 | NS(=O)(=O)OCC1COc2cc(Cl)c(Cl)cc2O1 (configuration not stated) | 109 to 111
56 | COC1=C(OC)C(O)C(CC=C(C)CCC=C(C)CCC=C(C)C)C(C)C1=O (configuration not stated) | 48 to 52
57 | COc1ccc(CNc2ccc(O)c(C(=O)O)c2)cc1 | 205 to 206
58 | Cc1cc2oc(=O)c3c(c2cc1NC(=O)c1ccccc1)CCN(CCN1CC2CCC(CC2)C1)C3 | 174 to 176
59 | N#Cc1cc(Cl)[nH]c1-c1oc2ccccc2c1Cl | 224 to 226
60 | COc1ccc(Oc2ccccc2)cc1NC(=O)c1ccn2c1CSC2c1cccnc1 (configuration not stated) | 158
61 | COC(=O)C=Cc1cc(Cl)ccc1C(=O)OC | 87 to 89
62 | CC(C#N)(COc1ccc(Cl)cc1Cc1ccccc1)NC(=O)c1ccc(OC(F)(F)F)cc1 (configuration not stated) | 103 to 104
63 | O=C(OCCO)c1ccc(Cl)c([N+](=O)[O-])c1 | 102 to 104
64 | Cc1cc(OC(F)(F)C(Cl)Cl)c([N+](=O)[O-])cc1S(=O)(=O)C=CC#N | 109
65 | CC(C)N1C(=O)N(c2ccc(C#N)c(C(F)(F)F)c2)C(=O)C1(CO)CO | 172 to 173
66 | CC(C)(Cn1c(N)nc2c(N)nc3ccccc3c21)NS(C)(=O)=O | > 230
67 | CCOC(=O)c1nn(Cc2ccccc2F)c2ncccc12 | 85
68 | CCCCCCCCOC(=O)Oc1ccc(-c2ccc(C#N)cc2)cc1 | 51.6
69 | O=[N+]([O-])c1cccc2c1C[C@H]1CSC(=S)N1C2 | 203
70 | Nn1c(=O)c(=O)[nH]c2ccc3ccc([N+](=O)[O-])cc3c21 | > 240
71 | CN(C)CCCCCCOc1ccc(C(=O)/C=C/c2ccccc2)cc1 | 43 to 46
72 | O=C1CCCCC1(CCCCCOc1ccccc1)c1ccccc1 (configuration not stated) | 69 to 72
73 | O=C(NCc1ccc(Cl)cc1)c1cnc2sc(CN3CCOCC3)cc2c1O | 193 to 195
74 | Cc1ccc(NC(=O)c2cccc(N(C)C)c2)cc1NC(=O)c1ccccc1O | 136 to 139
75 | CCNC(=O)c1cccc(F)c1[Si](C)(C)C | 80 to 82

Row | Structure (SMILES) | melting point [°C]
76 | C[C@]1(COC(=O)N2CCC(Nc3ccc(C(F)(F)F)cc3)CC2)Cn2cc([N+](=O)[O-])nc2O1 | 137 to 140
77 | COc1ccc(C(=C/C=C/C(=O)Nc2ccc(Cc3cccnc3)cc2)c2ccc(OC)cc2)cc1 | 185 to 186
78 | CN(CCc1ccccc1)c1ssc(=O)c1Cl | 75
79 | C=Cc1c(N)cc(-c2ccc(Cl)c(OC)c2F)nc1C(=O)O | 209 to 211
80 | COc1cc(O)c(C(=O)C=Cc2cccn2C)c(OC)c1 | 140
81 | Fc1ccc(Nc2ncnc3cnc(N4CCN(c5ccncc5)CC4)nc23)cc1Cl | 248 to 250
82 | Cc1ccccc1-c1nc(NCCN(C)C)ncc1N(C)C(=O)C(C)(C)c1cc(C(F)(F)F)cc(C(F)(F)F)c1 | 143 to 144
83 | CN(N=Cc1c[nH]c2ccccc12)c1cc(N2CCOCC2)nc(OCCc2ccccn2)n1 | 130 to 140
84 | CC12CCC3C(CC=C4CC(O)CCC43CSSCCO)C1CCC2=O (configuration not stated) | 129 to 130
85 | COc1cc(-c2cnc3[nH]c(=O)n(CC4CCCCC4)c3n2)ccn1 | 295 to 297
86 | COC(=O)c1cc(C(=O)OC)c(NCCCc2ccccc2)cn1 | 102 to 104
87 | CNCC1Cc2cc(Cl)cc(-c3cccc(OC)c3OC)c2O1 (configuration not stated) | 105 to 107
88 | CC(=O)C(Oc1cc(Cl)cc(C#N)c1)C(C)=O | 105 to 108
89 | CCOC(=O)c1cn(C)c2nc3cc(N4CCNC(Cc5ccccc5)C4)c(F)cc3cc2c1=O (racemic) | 190
90 | Cc1nc(CS(C)(=O)=O)nc(OC(=O)NN2CCOCC2)c1C | 147
91 | CC(C)c1ccccc1Sc1c(O)cc(-c2ccc(OCc3ccccc3)cc2)oc1=O | 163 to 165
92 | CNc1cc(NS(=O)(=O)c2ccc(N)cc2)nc(NC)n1 | 303 to 305
93 | COc1cc(CCc2c(/C=C/[N+](=O)[O-])ccc(OC)c2OC)cc(OC)c1 | 95 to 96
94 | CC(=O)c1ccc(NS(C)(=O)=O)c(Oc2ccc(Cl)cc2Cl)c1 | 119 to 121
95 | COc1ccc(-c2ncn(Cc3ccccc3)c2-c2ccc(OC)cc2)cc1 | 165 to 167
96 | COc1cccc2c1CC(CC(=O)O)C(=O)C2 (configuration not stated) | 129 to 131
97 | CN(c1cccc2cc(-c3ncc(CCc4n[nH]c(=O)o4)s3)[nH]c12)S(=O)(=O)c1cccs1 | 255 to 256
